Experimental data published in patent publication US7713994B2 (Wyeth LLC, priority 2005, dated 2010).
Read-outs that look alike come from different tables or passages of the source.

Key:
[1] = tested on: LoVo; experiment: Cytotoxicity assay (SRB), LoVo; type: cell-based; settings: read-out: In Vitro Cellular Activity IC50 LOVO
Outline: (§1)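 Protein staining with sulforhodamine B after cold TCA fixation served as the survival endpoint (A540, relative to untreated cells). Before staining, cells were incubated with compound at 37 °C, 7% CO2 for 3 days, or 6 days for BT474.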

[2] = tested on: BT474; experiment: Cytotoxicity assay (SRB), BT474; type: cell-based; settings: read-out: In Vitro Cellular Activity IC50 BT474
Outline: as §1

[3] = tested on: HCT-116; experiment: Cytotoxicity assay (SRB), HCT-116; type: cell-based; settings: read-out: In Vitro Cellular Activity IC50 HCT116
Outline: as §1

[4] = molecular target: T1, cyclin E/CDK2 enzyme (Homo sapiens, UniProt P24941); experiment: CDK2 ELISA kinase assay (phospho-Rb ser 795 detection); type: biochemical
T1 construct: made in house; host or cells: Sf9 insect cells, recombinant baculovirus
Outline: (§2)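 GST-Rb C-terminal fragment coated on wells; kinase reaction: 200 μM ATP, 0.5 mg/ml BSA, HEPES pH 7.5, 10 mM MgCl2, baculovirus/Sf9 cyclin-CDK, 30° C, 1 h. Readout anti-phospho-Rb Ser795, HRP, TMB, A450. Test compound 10 ug/ml final.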

[5] = molecular target: T2, cyclin B/CDK1 enzyme (Homo sapiens, UniProt P06493); experiment: CDK1 ELISA kinase assay (phospho-Rb ser 795 detection); type: biochemical
T2 construct: purchased New England BioLabs; host or cells: Sf9 insect cells, recombinant baculovirus
T2 sequence (P06493 whole entry): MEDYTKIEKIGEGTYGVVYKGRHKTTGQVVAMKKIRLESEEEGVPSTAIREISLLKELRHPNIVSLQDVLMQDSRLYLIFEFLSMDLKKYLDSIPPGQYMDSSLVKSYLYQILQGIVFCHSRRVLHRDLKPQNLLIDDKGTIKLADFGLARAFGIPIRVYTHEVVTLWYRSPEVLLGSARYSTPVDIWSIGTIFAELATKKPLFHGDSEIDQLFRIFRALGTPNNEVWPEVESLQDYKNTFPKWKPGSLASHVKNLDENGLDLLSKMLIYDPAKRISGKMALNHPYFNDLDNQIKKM
T2 sequence (P14635 whole entry partner): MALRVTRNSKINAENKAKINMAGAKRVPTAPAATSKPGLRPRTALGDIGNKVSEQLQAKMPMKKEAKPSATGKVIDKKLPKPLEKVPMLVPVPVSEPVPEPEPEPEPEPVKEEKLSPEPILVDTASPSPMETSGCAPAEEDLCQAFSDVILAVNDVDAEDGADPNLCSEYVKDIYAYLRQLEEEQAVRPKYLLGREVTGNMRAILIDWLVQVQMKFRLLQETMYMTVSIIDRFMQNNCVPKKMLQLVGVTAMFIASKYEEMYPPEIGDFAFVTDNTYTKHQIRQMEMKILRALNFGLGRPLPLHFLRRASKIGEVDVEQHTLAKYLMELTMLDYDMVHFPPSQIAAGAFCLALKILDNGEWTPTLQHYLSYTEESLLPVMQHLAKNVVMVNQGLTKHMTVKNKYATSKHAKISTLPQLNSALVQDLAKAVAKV
Outline: as §2

[6] = tested on: MCF-7; experiment: Cytotoxicity assay (SRB), MCF-7; type: cell-based; settings: read-out: In Vitro Cellular Activity IC50 MCF-7
Outline: as §1

[7] = molecular target: T3, cyclin D1/cdk 4 enzyme (Homo sapiens, UniProt P11802); experiment: CDK4 ELISA kinase assay (phospho-Rb ser 795 detection); type: biochemical
T3 construct: made in house; host or cells: Sf9 insect cells, recombinant baculovirus
T3 sequence (P11802 whole entry, species assumed): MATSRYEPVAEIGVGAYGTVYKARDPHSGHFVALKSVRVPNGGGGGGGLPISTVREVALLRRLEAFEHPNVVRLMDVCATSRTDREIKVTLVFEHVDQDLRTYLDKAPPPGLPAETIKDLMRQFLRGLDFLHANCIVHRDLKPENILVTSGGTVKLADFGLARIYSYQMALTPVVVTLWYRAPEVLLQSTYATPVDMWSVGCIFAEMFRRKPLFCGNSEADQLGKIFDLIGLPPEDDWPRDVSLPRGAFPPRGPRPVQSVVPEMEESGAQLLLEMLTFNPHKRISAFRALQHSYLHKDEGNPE
T3 sequence (P24385 whole entry partner, species assumed): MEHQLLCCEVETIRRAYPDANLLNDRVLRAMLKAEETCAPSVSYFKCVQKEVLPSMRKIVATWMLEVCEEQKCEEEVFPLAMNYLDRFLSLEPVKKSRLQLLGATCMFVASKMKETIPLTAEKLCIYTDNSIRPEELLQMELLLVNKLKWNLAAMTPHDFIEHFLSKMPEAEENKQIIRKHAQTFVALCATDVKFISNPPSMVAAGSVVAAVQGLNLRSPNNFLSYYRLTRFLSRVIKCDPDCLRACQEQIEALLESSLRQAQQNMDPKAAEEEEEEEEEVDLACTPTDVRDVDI
Outline: as §2

[8] = Homo sapiens, LoVo, 72 h, LoVo cells, 3 days, SRB
[9] = Homo sapiens, BT-474, 144 h, BT474 cells, 6 days, SRB
[10] = Homo sapiens, HCT-116, 72 h, HCT116 cells, 3 days, SRB
[11] = In Vitro Enzyme Assay, cyclin E/CDK2, read-out: CDK2 IC50
[12] = In Vitro Enzyme Assay, cyclin B/CDK1, read-out: CDK1 IC50
[13] = Homo sapiens, MCF7, 72 h, MCF-7 cells, 3 days, SRB
[14] = In Vitro Enzyme Assay, cyclin D1/cdk 4, read-out: CDK4 IC50
[15] = Homo sapiens, LoVo, 72 h, LoVo cells, SRB, three days
[16] = Homo sapiens, BT-474, 144 h, BT474 cells, SRB, 6 days
[17] = Homo sapiens, HCT-116, 72 h, HCT116 cells, SRB, three days
[18] = In Vitro Enzyme Assays, read-out: CDK2 IC50
[19] = In Vitro Enzyme Assays, read-out: CDK1 IC50
[20] = Homo sapiens, MCF7, 72 h, MCF-7 cells, SRB, three days
[21] = In Vitro Enzyme Assays, 200 μM ATP, read-out: CDK4 IC50

| SMILES | IC50 [1, 8] [µM] | IC50 [2, 9] [µM] | IC50 [3, 10] [µM] | IC50 [4, 11] [µM] | IC50 [5, 12] [µM] | IC50 [6, 13] [µM] | IC50 [7, 14] [µM] | IC50 [1, 15] [µM] | IC50 [2, 16] [µM] | IC50 [3, 17] [µM] | IC50 [4, 18] [µM] | IC50 [5, 19] [µM] | IC50 [6, 20] [µM] | IC50 [7, 21] [µM] | also measured |
| --- | --- | --- | --- | --- | --- | --- | --- | --- | --- | --- | --- | --- | --- | --- | --- |
| COc1ccc(NC=C2C(=O)NCc3cc(-c4ccc[nH]4)ccc32)cc1 [Example 849, 4-[(4-Methoxy-phenylamino)-methylene]-7-(1H-pyrrol-2-yl)-1,4-dihydro-2H-isoquinolin-3-one] | 15.9 | 6.8 | 12.8 | 40.6 | > 50 | 4.3 | > 50 |  |  |  |  |  |  |  |  |
| O=C1NCc2cc(Br)ccc2C1=CNc1ccc(CN2CCCC2)cc1 [Example 847, 7-Bromo-4-[(4-pyrrolidin-1-ylmethyl-phenylamino)-methylene]-1,4-dihydro-2H-isoquinolin-3-one] | 4.9 | 8.1 | 4.3 | > 50 | > 50 | 6 | 5 |  |  |  |  |  |  |  |  |
| Nc1cccc(-c2ccc3c(c2)C(=CNCc2ccc(O)c(O)c2)C(=O)NC3=O)c1 [Example 821, 6-(3-Amino-phenyl)-4-[(3,4-dihydroxy-benzylamino)-methylene]-4H-isoquinoline-1,3-dione] | 50.1 | 25.1 | 35.9 | 20.7 | 24.2 | 27.2 | 0.14 |  |  |  |  |  |  |  |  |
| CC(=O)Nc1cccc(-c2ccc3c(c2)C(=CNCc2ccc(O)c(O)c2)C(=O)NC3=O)c1 [Example 822, N-(3-{4-[(3,4-Dihydroxy-benzylamino)-methylene]-1,3-dioxo-1,2,3,4-tetrahydro-isoquinolin-6-yl}-phenyl)-acetamide] | 47.9 | 11 | 27.2 | 18.9 | 46.5 | 16.8 | 0.15 |  |  |  |  |  |  |  |  |
| CN1CCN(c2ccc(N/C=C3\C(=O)NC(=O)c4ccc(-c5ccc(C#N)cc5)cc43)cc2)CC1 [Example 153, 4-(4-{[4-(4-Methyl-piperazin-1-yl)-phenylamino]-methylene}-1,3-dioxo-1,2,3,4-tetrahydro-isoquinolin-6-yl)-benzonitrile] |  |  |  |  |  |  |  | 3.7 | 3.4 | 1.1 | 4.3 | 4.3 | 3.4 | 0.8 |  |
| COc1ccc(CN/C=C2\C(=O)NC(=O)c3ccc(-c4cccc(F)c4)cc32)cc1O [Example 209, (4Z)-6-(3-Fluorophenyl)-4-{[(3-hydroxy-4-methoxybenzyl)amino]methylene}iso-quinoline-1,3(2H,4H)-dione] |  |  |  |  |  |  |  | 15 | 9.4 | 7 | 9.2 | > 50 | 5.4 | 0.01 |  |
| NS(=O)(=O)c1ccc(CNC=C2C(=O)NC(=O)c3ccc(-c4ccc5[nH]ccc5c4)cc32)cc1 [Example 637, 4-({[6-(1H-Indol-5-yl)-1,3-dioxo-2,3-dihydro-1H-isoquinolin-4-ylidenemethyl]-amino}-methyl)-benzenesulfonamide] | > 50 | 29.2 | > 50 | 13.5 | 18 | 22.7 | 0.81 |  |  |  |  |  |  |  |  |
| CN1CCCC1c1ccc(NC=C2C(=O)NC(=O)c3ccc(I)cc32)cc1 (stereo not drawn) [Example 361, 6-Iodo-4-{[4-(1-methyl-pyrrolidin-2-yl)-phenylamino]-methylene}-4H-isoquinoline-1,3-dione] |  |  |  |  |  |  |  | 5.9 | 0.86 | 3.8 | 17.9 | 45.5 | 2.6 | 0.22 |  |
| CCCCc1ccc(CN/C=C2\C(=O)NC(=O)c3ccc(I)cc32)cc1O [Example 495, 4-[(4-Butyl-3-hydroxy-benzylamino)-methylene]-6-iodo-4H-isoquinoline-1,3-dione] | 6.3 | 4.5 | 4.9 | > 50 | > 50 | 3.3 | 0.3 |  |  |  |  |  |  |  |  |
| COc1ccc(CNC=C2C(=O)NC(=O)c3ccc(C=Cc4ccccn4)cc32)cc1O [Example 735, 4-[(3-Hydroxy-4-methoxy-benzylamino)-methylene]-6-(2-pyridin-2-yl-vinyl)-4H-isoquinoline-1,3-dione] | 11.4 | 20.1 | 18.2 | > 50 | > 50 | 21.9 | 0.14 |  |  |  |  |  |  |  |  |
| C=CC(=O)Nc1ccc(CN/C=C2\C(=O)NC(=O)c3ccc(Br)cc32)cc1 [Example 322, N-[4-({[(Z)-(6-Bromo-1,3-dioxo-2,3-dihydroisoquinolin-4(1H)-ylidene)methyl]amino}methyl)phenyl]acrylamide] |  |  |  |  |  |  |  |  |  |  | 7.8 | > 50 |  | > 50 | IC50 ([1]; Homo sapiens, LoVo, 72 h): 0.24 µM; IC50 ([2]; Homo sapiens, BT-474, 144 h): 0.11 µM; IC50 ([3]; Homo sapiens, HCT-116, 72 h): 0.25 µM; IC50 ([6]; Homo sapiens, MCF7, 72 h): 0.24 µM |
| CN1CCN(c2ccc(N/C=C3\C(=O)NC(=O)c4ccc(-c5ccoc5)cc43)c(F)n2)CC1 [Example 497, (4Z)-4-({[2-Fluoro-6-(4-methylpiperazin-1-yl)pyridin-3-yl]amino}methylene)-6-(3-furyl)isoquinoline-1,3(2H,4H)-dione] |  |  |  | > 50 | > 50 |  | 0.37 |  |  |  |  |  |  |  | IC50 ([1]; LoVo cells, 3 days, SRB): 3.2 µM; IC50 ([2]; BT474 cells, 6 days, SRB): 2.7 µM; IC50 ([3]; HCT116 cells, 3 days, SRB): 2.6 µM; IC50 ([6]; MCF-7 cells, 3 days, SRB): 1.4 µM |
| NS(=O)(=O)c1ccc(CNC=C2C(=O)NC(=O)c3ccc(-c4cc[nH]c4)cc32)cc1 [Example 639, 4-({[1,3-Dioxo-6-(1H-pyrrol-3-yl)-2,3-dihydro-1H-isoquinolin-4-ylidenemethyl]-amino}-methyl)-benzenesulfonamide] | > 50 | 18.7 | > 50 | 19.7 | > 50 | 25.8 | 9.2 |  |  |  |  |  |  |  |  |
| CN1CCC(Oc2ccc(N/C=C3\C(=O)NC(=O)c4ccc(Br)cc43)cc2)C1 (stereo not drawn) [Example 276, (4Z)-6-Bromo-4-[({4-[(1-methylpyrrolidin-3-yl)oxy]phenyl}amino)methylene]isoquinoline-1,3(2H,4H)-dione] |  |  |  |  |  |  |  | 6.2 | 8.3 | 3.9 | > 50 | > 50 | 4.4 | 42.5 |  |
| COc1ccc(C(C)N/C=C2\C(=O)NC(=O)c3ccc(Br)cc32)cc1O (stereo not drawn) [Example 189, (4Z)-6-Bromo-4-({[1-(3-hydroxy-4-methoxyphenyl)ethyl]amino}methylene)isoquinoline-1,3(2H,4H)-dione] |  |  |  |  |  |  |  | 6.4 | 5.8 | 7.2 | > 50 | > 50 | 9.9 | 0.37 |  |
| O=C1NC(=O)c2ccc(I)cc2/C1=C/Nc1ccc2ncccc2c1 [Example 272, (4Z)-6-Iodo-4-[(quinolin-6-ylamino)methylene]isoquinoline-1,3(2H,4H)-dione] |  |  |  |  |  |  |  | 8.9 | 7.2 | 4.2 | 39.7 | > 50 | 3.1 |  |  |
| CN1CCC(Oc2ccc(N/C=C3\C(=O)NC(=O)c4ccc(Br)cc43)cc2)C1 (stereo not drawn) [Example 877, (4Z)-6-Bromo-4-[({4-[(1-methylpyrrolidin-3-yl)oxy]phenyl}amino)methylene]isoquinoline-1,3(2H,4H)-dione] | 6.2 |  | 3.9 |  |  | 4.4 |  |  |  |  |  |  |  |  | IC50 ([4]; In Vitro Enzyme Assay, read-out: CDK2 IC50): > 50 µM; IC50 ([5]; In Vitro Enzyme Assay, read-out: CDK1 IC50): > 50 µM; IC50 ([7]; In Vitro Enzyme Assay, read-out: CDK4 IC50): 42.5 µM |
